Measurements: US11780893B2, “Kv1.3 blockers” (Zealand Pharma A/S, priority 2019, dated 2023)
Bridge positions count the residues as written; N and C are the ends. Square brackets hold non-standard residues; d marks the D form. Peptide text beside a SMILES is read from it. Phe(4-NH2) = Nc1ccc(C[C@H](N)C(=O)O)cc1; Nle = CCCC[C@H](N)C(=O)O

Key:
[1] = biological target: T1, human Kv1.3 voltage-gated K+ channel (Homo sapiens, UniProt P22001); assay: cell-based; conditions: inhibition of thallium flux, CHO-DUKX cells with human Kv1.3; read-out: IC50
T1 construct: host or cells: CHO-DUKX
T1 sequence (P22001 whole entry): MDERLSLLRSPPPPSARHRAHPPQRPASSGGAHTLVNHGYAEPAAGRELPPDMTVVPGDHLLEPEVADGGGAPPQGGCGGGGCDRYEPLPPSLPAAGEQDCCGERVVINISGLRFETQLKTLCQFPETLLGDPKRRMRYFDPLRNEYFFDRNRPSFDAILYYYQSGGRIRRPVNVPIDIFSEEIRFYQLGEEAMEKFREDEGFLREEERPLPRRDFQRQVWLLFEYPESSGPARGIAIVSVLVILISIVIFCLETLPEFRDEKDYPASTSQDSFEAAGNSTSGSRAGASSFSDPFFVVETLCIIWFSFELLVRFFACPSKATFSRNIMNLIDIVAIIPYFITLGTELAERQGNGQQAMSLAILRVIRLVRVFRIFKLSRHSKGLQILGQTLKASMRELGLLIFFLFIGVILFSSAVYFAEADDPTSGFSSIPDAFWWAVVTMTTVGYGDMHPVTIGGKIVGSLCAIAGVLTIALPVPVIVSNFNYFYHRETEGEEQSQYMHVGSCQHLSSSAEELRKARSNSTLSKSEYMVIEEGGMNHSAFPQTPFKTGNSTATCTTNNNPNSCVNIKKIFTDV

Kv1.3 = biological target: T2, Kv1.3 (Homo sapiens, UniProt P22001); assay: cell-based; conditions: CHO cells, whole-cell patch clamp; read-out: Potency IC50 (nM) Kv1.3
T2 construct: expressed in transfected cells; host or cells: Chinese Hamster Ovary (CHO)
T2 sequence (P22001 whole entry): as above

Rat whole blood = Rat whole blood (Rattus norvegicus, UniProt P15384)
Sequence of Rat whole blood (P15384 whole entry): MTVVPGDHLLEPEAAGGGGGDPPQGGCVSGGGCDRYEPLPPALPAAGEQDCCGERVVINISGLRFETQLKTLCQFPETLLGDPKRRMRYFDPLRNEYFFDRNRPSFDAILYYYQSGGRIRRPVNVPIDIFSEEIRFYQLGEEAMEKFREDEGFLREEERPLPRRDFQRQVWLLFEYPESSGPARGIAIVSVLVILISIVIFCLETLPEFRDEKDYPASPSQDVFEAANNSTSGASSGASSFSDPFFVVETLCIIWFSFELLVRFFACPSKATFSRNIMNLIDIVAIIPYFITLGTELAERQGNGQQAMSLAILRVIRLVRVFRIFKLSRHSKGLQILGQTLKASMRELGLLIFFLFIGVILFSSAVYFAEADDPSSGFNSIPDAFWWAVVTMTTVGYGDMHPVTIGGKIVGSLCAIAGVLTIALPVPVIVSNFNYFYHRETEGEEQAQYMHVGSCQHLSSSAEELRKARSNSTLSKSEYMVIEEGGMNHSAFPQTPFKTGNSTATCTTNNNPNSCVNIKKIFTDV

Kv1.1 = biological target: T3, Kv1.1 (Homo sapiens, UniProt Q09470); assay: cell-based; conditions: for IC50: CHO cells, whole-cell patch clamp, read-out: Potency IC50 (nM) Kv1.1; for Selectivity Kv1.1/Kv1.3: ratio IC50[Kv1.1]/IC50[Kv1.3]
T3 construct: expressed in transfected cells; host or cells: Chinese Hamster Ovary (CHO)
T3 sequence (Q09470 whole entry): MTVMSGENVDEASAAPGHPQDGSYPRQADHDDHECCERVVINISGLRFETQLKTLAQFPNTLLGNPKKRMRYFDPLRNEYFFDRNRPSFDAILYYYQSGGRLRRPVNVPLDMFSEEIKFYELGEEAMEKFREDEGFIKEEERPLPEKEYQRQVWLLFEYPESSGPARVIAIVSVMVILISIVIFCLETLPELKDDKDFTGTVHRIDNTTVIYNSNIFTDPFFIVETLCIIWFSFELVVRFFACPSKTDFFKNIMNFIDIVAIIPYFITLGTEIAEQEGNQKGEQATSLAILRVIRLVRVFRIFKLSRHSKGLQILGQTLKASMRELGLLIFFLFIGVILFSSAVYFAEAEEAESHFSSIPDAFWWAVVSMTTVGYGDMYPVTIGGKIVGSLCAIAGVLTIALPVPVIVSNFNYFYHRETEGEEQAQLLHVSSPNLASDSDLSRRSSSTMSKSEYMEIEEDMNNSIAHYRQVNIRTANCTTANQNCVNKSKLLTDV

Kv1.6 = biological target: T4, Kv1.6 (Homo sapiens, UniProt P17658); assay: cell-based; conditions: for IC50: CHO cells, whole-cell patch clamp, read-out: Potency IC50 (nM) Kv1.6; for Selectivity Kv1.6/Kv1.3: ratio IC50[Kv1.6]/IC50[Kv1.3]
T4 construct: expressed in transfected cells; host or cells: Chinese Hamster Ovary (CHO)
T4 sequence (P17658 whole entry): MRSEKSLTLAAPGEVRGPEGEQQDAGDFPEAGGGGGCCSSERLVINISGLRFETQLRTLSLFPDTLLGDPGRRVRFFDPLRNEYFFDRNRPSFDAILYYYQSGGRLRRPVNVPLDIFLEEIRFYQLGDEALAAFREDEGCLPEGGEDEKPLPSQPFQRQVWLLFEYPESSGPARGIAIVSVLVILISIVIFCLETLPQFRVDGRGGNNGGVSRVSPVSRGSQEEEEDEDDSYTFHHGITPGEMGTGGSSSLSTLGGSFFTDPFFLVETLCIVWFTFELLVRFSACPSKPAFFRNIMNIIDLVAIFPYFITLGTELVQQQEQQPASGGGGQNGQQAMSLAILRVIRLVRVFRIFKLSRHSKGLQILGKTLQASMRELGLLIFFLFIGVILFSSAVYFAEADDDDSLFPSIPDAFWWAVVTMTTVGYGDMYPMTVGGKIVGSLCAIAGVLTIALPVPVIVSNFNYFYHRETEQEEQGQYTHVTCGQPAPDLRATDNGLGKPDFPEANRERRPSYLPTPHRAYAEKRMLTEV

Kv1.2 = biological target: T5, Kv1.2 (Homo sapiens, UniProt P16389); assay: cell-based; conditions: for IC50: CHO cells, whole-cell patch clamp, read-out: Potency IC50 (nM) Kv1.2
T5 construct: expressed in transfected cells; host or cells: Chinese Hamster Ovary (CHO)
T5 sequence (P16389 whole entry): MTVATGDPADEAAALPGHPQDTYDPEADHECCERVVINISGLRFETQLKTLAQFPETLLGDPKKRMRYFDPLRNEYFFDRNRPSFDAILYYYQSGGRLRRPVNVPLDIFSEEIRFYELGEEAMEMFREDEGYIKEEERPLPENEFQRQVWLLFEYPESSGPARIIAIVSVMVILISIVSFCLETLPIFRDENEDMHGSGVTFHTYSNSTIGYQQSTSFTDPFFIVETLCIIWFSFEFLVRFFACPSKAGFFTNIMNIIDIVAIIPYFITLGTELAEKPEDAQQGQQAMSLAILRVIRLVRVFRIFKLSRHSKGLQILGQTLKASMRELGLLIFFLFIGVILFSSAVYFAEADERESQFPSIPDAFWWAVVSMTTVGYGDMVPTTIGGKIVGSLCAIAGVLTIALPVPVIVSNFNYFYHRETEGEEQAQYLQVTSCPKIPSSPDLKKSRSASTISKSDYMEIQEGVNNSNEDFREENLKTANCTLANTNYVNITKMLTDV

Structure (SMILES) | IC50 [1] [nM] | IC50 (Kv1.3) [nM] | IC50 (Rat whole blood) [nM] | IC50 (Kv1.1) [nM] | Selectivity Kv1.1/Kv1.3 (Kv1.1) | IC50 (Kv1.6) [nM] | Selectivity Kv1.6/Kv1.3 (Kv1.6) | IC50 (Kv1.2) [nM] | Selectivity Kv1.2/Kv1.3 (Kv1.2; ratio IC50[Kv1.2]/IC50[Kv1.3])
CCCC[C@H](NC(=O)[C@H](CC(=O)O)NC(=O)[C@H](CCCC)NC(=O)[C@@H](N)CO)C(=O)N[C@@H](CCCNC(=N)N)C(=O)N[C@H]1CSSC[C@@H]2NC(=O)[C@H](CCCCN)NC(=O)CNC(=O)[C@H](Cc3ccccc3)NC(=O)[C@H]([C@@H](C)CC)NC(=O)[C@H](CO)NC(=O)CNC(=O)[C@H]([C@@H](C)CC)NC(=O)[C@H](C)NC(=O)[C@H](CCCCN)NC(=O)[C@H](CC(C)C)NC(=O)[C@@H]3CSSC[C@@H](C(=O)N[C@@H](Cc4ccc(N)cc4)C(=O)N4CCC[C@H]4C(=O)N[C@@H](CCCNC(=N)N)C(N)=O)NC(=O)[C@H](CCCCN)NC(=O)[C@H](CSSC[C@H](NC(=O)[C@H](CCC(=O)O)NC(=O)[C@H](C(C)C)NC(=O)[C@H](CO)NC(=O)[C@H](C)NC(=O)[C@H](CO)NC1=O)C(=O)N[C@@H](CCCCN)C(=O)N[C@@H](CCC(N)=O)C(=O)N[C@@H](CCCCN)C(=O)N3)NC(=O)[C@H](CCCCN)NC(=O)[C@H](CCCCN)NC(=O)[C@H](CC(N)=O)NC(=O)[C@H](CCSC)NC2=O [Compound 70] (H-S[Nle]D[Nle]RCSASVECKQKCLKAIGSIFGKCMNKKCKC[Phe(4-NH2)]PR-NH2; disulfide 6-27, 12-32, 16-34) | 0.13 | 0.25 | ≤ 1 | > 3000 | >12200 | > 3000 | >12200 | 423 | 
CCCC[C@H](NC(=O)[C@H](CC(=O)O)NC(=O)[C@H](CCCC)NC(=O)[C@@H](N)CO)C(=O)N[C@@H](CCCNC(=N)N)C(=O)N[C@H]1CSSC[C@@H]2NC(=O)[C@H](CCCCN)NC(=O)CNC(=O)[C@H](Cc3ccccc3)NC(=O)[C@H]([C@@H](C)CC)NC(=O)[C@H](CO)NC(=O)CNC(=O)[C@H]([C@@H](C)CC)NC(=O)[C@H](C)NC(=O)[C@H](CCCCN)NC(=O)[C@H](CC(C)C)NC(=O)[C@@H]3CSSC[C@@H](C(=O)N[C@@H](Cc4ccc(O)cc4)C(=O)N4CCC[C@H]4C(=O)N[C@@H](CCCNC(=N)N)C(N)=O)NC(=O)[C@H](CCCCN)NC(=O)[C@H](CSSC[C@H](NC(=O)[C@H](CCC(=O)O)NC(=O)[C@H](C(C)C)NC(=O)[C@H](CO)NC(=O)[C@H](C)NC(=O)[C@H](CO)NC1=O)C(=O)NCC(=O)N[C@@H](CCC(N)=O)C(=O)N[C@@H](CCCCN)C(=O)N3)NC(=O)[C@H](CCCCN)NC(=O)[C@H](CCCCN)NC(=O)[C@H](CC(N)=O)NC(=O)[C@H](CCSC)NC2=O [Compound 71] (H-S[Nle]D[Nle]RCSASVECGQKCLKAIGSIFGKCMNKKCKCYPR-NH2; disulfide 6-27, 12-32, 16-34) | 0.1 | 0.11 | ≤ 1 | > 3000 | >27700 | > 3000 | >27700 | 373 | 
CCCC[C@H](NC(=O)[C@@H](N)CO)C(=O)N[C@@H](CC(=O)O)C(=O)N[C@@H](CCC(=O)O)C(=O)N[C@@H](CCCNC(=N)N)C(=O)N[C@H]1CSSC[C@@H]2NC(=O)[C@H](CCCCN)NC(=O)CNC(=O)[C@H](Cc3ccccc3)NC(=O)[C@H]([C@@H](C)CC)NC(=O)[C@H](CO)NC(=O)CNC(=O)[C@H]([C@@H](C)CC)NC(=O)[C@H](C)NC(=O)[C@H](CCCCN)NC(=O)[C@H](CC(C)C)NC(=O)[C@@H]3CSSC[C@@H](C(=O)N[C@@H](Cc4ccc(O)cc4)C(=O)N4CCC[C@H]4C(=O)N[C@@H](CCCNC(=N)N)C(N)=O)NC(=O)[C@H](CCCCN)NC(=O)[C@H](CSSC[C@H](NC(=O)[C@H](CCC(=O)O)NC(=O)[C@H](C(C)C)NC(=O)[C@H](CO)NC(=O)[C@H](C)NC(=O)[C@H](CO)NC1=O)C(=O)N[C@@H](CCCCN)C(=O)N[C@@H](CCC(N)=O)C(=O)N[C@@H](CCCCN)C(=O)N3)NC(=O)[C@H](CCCCN)NC(=O)[C@H](CCCCN)NC(=O)[C@H](CC(N)=O)NC(=O)[C@H](CCSC)NC2=O [Compound 76] (H-S[Nle]DERCSASVECKQKCLKAIGSIFGKCMNKKCKCYPR-NH2; disulfide 6-27, 12-32, 16-34) | 0.093 | 0.28 | ≤ 1 | > 3000 | >10600 | > 3000 | >10600 | 122 | 
CCCC[C@H](NC(=O)[C@@H]1CCCN1)C(=O)N[C@@H](CC(=O)O)C(=O)N[C@@H](CCCC)C(=O)N[C@@H](CCCNC(=N)N)C(=O)N[C@H]1CSSC[C@@H]2NC(=O)[C@H](CCCCN)NC(=O)CNC(=O)[C@H](Cc3ccccc3)NC(=O)[C@H]([C@@H](C)CC)NC(=O)[C@@H]3CSSC[C@@H](C(N)=O)NC(=O)[C@@H]4CCCN4C(=O)[C@H](Cc4ccc(O)cc4)NC(=O)[C@@H]4CSSC[C@H](NC(=O)[C@H](CCCCN)NC(=O)[C@H](CCC(N)=O)NC(=O)[C@H](CCCCN)NC(=O)[C@H](CSSC[C@H](NC(=O)[C@H](CCCCN)NC(=O)[C@H](CCCCN)NC(=O)[C@H](CC(N)=O)NC(=O)[C@H](CCCC)NC2=O)C(=O)N[C@@H](CCCCN)C(=O)N4)NC(=O)[C@H](CCC(=O)O)NC(=O)[C@H](C(C)C)NC(=O)[C@H](CO)NC(=O)[C@H](C)NC(=O)[C@H](CO)NC1=O)C(=O)N[C@@H](CC(C)C)C(=O)N[C@@H](CCCCN)C(=O)N[C@@H](C)C(=O)N[C@@H]([C@@H](C)CC)C(=O)NCC(=O)N3 [Compound 83] (H-P[Nle]D[Nle]RCSASVECKQKCLKAIGCIFGKC[Nle]NKKCKCYPC-NH2; disulfide 6-27, 12-32, 16-34, 22-37) | 0.12 | 0.63 | ≤ 1 | > 3000 | >4800 | 1220 | 1949 | 624 | 995
CCCC[C@@H]1NC(=O)[C@@H]2CSSC[C@H](NC(=O)[C@H](CCCNC(=N)N)NC(=O)[C@H](CCCC)NC(=O)[C@H](CC(=O)O)NC(=O)[C@@H](N)CCCC)C(=O)N[C@@H](CO)C(=O)N[C@@H](C)C(=O)N[C@@H](CO)C(=O)N[C@@H](C(C)C)C(=O)N[C@@H](CCC(=O)O)C(=O)N[C@H]3CSSC[C@H](NC(=O)[C@H](CCCCN)NC(=O)[C@H](CCCCN)NC(=O)[C@H](CC(N)=O)NC1=O)C(=O)N[C@@H](CCCCN)C(=O)N[C@H](C(=O)N[C@@H](Cc1ccc(O)cc1)C(=O)N1CCC[C@H]1C(=O)N[C@@H](CCCNC(=N)N)C(=O)O)CSSC[C@H](NC(=O)[C@H](CCCCN)NC(=O)[C@H](CCC(N)=O)NC(=O)[C@H](CCCCN)NC3=O)C(=O)N[C@@H](CC(C)C)C(=O)N[C@@H](CCCCN)C(=O)N[C@@H](C)C(=O)N[C@@H]([C@@H](C)CC)C(=O)NCC(=O)N[C@@H](CO)C(=O)N[C@@H]([C@@H](C)CC)C(=O)N[C@@H](Cc1ccccc1)C(=O)NCC(=O)N[C@@H](CCCCN)C(=O)N2 [Compound 94] (H-[Nle]D[Nle]RCSASVECKQKCLKAIGSIFGKC[Nle]NKKCKCYPR-OH; disulfide 5-26, 11-31, 15-33) | 0.16 | 0.17 | ≤ 1 | > 3000 | >17800 | > 3000 | >17800 | 1860 | 
